Results as given in ChEMBL document CHEMBL1135126, “Identification of novel antifungal nonapeptides through the screening of combinatorial peptide libraries based on a hexapeptide motif” (Bioorg Med Chem Lett, 2002).
≈ marks a conversion by molar mass, not a printed value. Where a SMILES comes first, the peptide text is derived from it. [ ]: non-standard residue; d: D form.

How the values were obtained:
[1] = test system: Candida albicans; assay: Concentration that substantially inhibit growth of Candida albicans; assay type: functional, organism-based
[2] = test system: Cryptococcus neoformans; assay: Concentration that substantially inhibit the growth of Cryptococcus neoformans; assay type: functional

SMILES | IC50 [1] [µM] | MIC [2] [µM]
CC[C@H](C)[C@H](NC(=O)[C@@H](Cc1ccccc1)NC(=O)[C@@H](Cc1c[nH]c2ccccc12)NC(=O)[C@@H](N)CCCN=C(N)N)C(=O)N[C@H](Cc1ccccc1)C(=O)N[C@@H](Cc1c[nH]cn1)C(=O)N[C@@H](CCCCN)C(=O)N[C@@H](CCCN=C(N)N)C(=O)N[C@@H](C)C(N)=O | 5.99 | 4.96 (≈ 6.25 µg/mL)
CC[C@H](C)[C@H](NC(=O)[C@@H](Cc1ccccc1)NC(=O)[C@@H](Cc1c[nH]c2ccccc12)NC(=O)[C@@H](N)CCCN=C(N)N)C(=O)N[C@H](Cc1ccccc1)C(=O)N[C@@H](Cc1c[nH]cn1)C(=O)N[C@@H](CCCCN)C(=O)N[C@@H](CCCCN)C(=O)N[C@@H](Cc1c[nH]cn1)C(N)=O [listing 1 of 2 here] |  | 2.36 (≈ 3.06 µg/mL)
CC[C@H](C)[C@H](NC(=O)[C@@H](Cc1ccccc1)NC(=O)[C@@H](Cc1c[nH]c2ccccc12)NC(=O)[C@@H](N)CCCN=C(N)N)C(=O)N[C@H](Cc1ccccc1)C(=O)N[C@@H](Cc1c[nH]cn1)C(=O)N[C@@H](CCCCN)C(=O)N[C@@H](CCCCN)C(=O)N[C@@H](Cc1ccccc1)C(N)=O [listing 1 of 2 here] |  | > 7
CC[C@H](C)[C@H](NC(=O)[C@@H](Cc1ccccc1)NC(=O)[C@@H](Cc1c[nH]c2ccccc12)NC(=O)[C@@H](N)CCCN=C(N)N)C(=O)N[C@H](Cc1ccccc1)C(=O)N[C@@H](Cc1c[nH]cn1)C(=O)N[C@@H](CCCCN)C(=O)N[C@@H](CCCCN)C(=O)N[C@H](C(N)=O)[C@@H](C)O | 2.38 | 2.44 (≈ 3.08 µg/mL)
CC[C@H](C)[C@H](NC(=O)[C@H](CCCN=C(N)N)NC(=O)[C@H](CCCCN)NC(=O)[C@H](Cc1c[nH]cn1)NC(=O)[C@@H](Cc1ccccc1)NC(=O)[C@@H](NC(=O)[C@@H](Cc1ccccc1)NC(=O)[C@@H](Cc1c[nH]c2ccccc12)NC(=O)[C@@H](N)CCCN=C(N)N)[C@@H](C)CC)C(N)=O | 4.64 | 2.39 (≈ 3.11 µg/mL)
CC[C@H](C)[C@H](NC(=O)[C@@H](Cc1ccccc1)NC(=O)[C@@H](Cc1c[nH]c2ccccc12)NC(=O)[C@@H](N)CCCN=C(N)N)C(=O)N[C@H](Cc1ccccc1)C(=O)N[C@@H](Cc1c[nH]cn1)C(=O)N[C@@H](CCCCN)C(=O)N[C@@H](CCCN=C(N)N)C(=O)N[C@@H](Cc1c[nH]c2ccccc12)C(N)=O | 6.35 | 4.54 (≈ 6.24 µg/mL)
CC[C@H](C)[C@H](NC(=O)[C@@H](Cc1ccccc1)NC(=O)[C@@H](Cc1c[nH]c2ccccc12)NC(=O)[C@@H](N)CCCN=C(N)N)C(=O)N[C@H](Cc1ccccc1)C(=O)N[C@@H](Cc1c[nH]cn1)C(=O)N[C@@H](CCCCN)C(=O)N[C@@H](CCCCN)C(=O)N[C@H](C(N)=O)C(C)C | 3.08 | 2.43 (≈ 3.06 µg/mL)
CC[C@H](C)[C@H](NC(=O)[C@@H](Cc1ccccc1)NC(=O)[C@@H](Cc1c[nH]c2ccccc12)NC(=O)[C@@H](N)CCCN=C(N)N)C(=O)N[C@H](Cc1ccccc1)C(=O)N[C@@H](Cc1c[nH]cn1)C(=O)N[C@@H](CCCCN)C(=O)N[C@@H](CCCN=C(N)N)C(=O)N[C@H](C(N)=O)[C@@H](C)O | 5.97 | 4.84 (≈ 6.24 µg/mL)
CC[C@H](C)[C@H](NC(=O)[C@@H](Cc1ccccc1)NC(=O)[C@@H](Cc1c[nH]c2ccccc12)NC(=O)[C@@H](N)CCCN=C(N)N)C(=O)N[C@H](Cc1ccccc1)C(=O)N[C@@H](Cc1c[nH]cn1)C(=O)N[C@@H](CCCCN)C(=O)N[C@@H](CCCN=C(N)N)C(=O)N[C@@H](Cc1ccccc1)C(N)=O | 5.5 | 4.67 (≈ 6.24 µg/mL)
CC[C@H](C)[C@H](NC(=O)[C@@H](Cc1ccccc1)NC(=O)[C@@H](Cc1c[nH]c2ccccc12)NC(=O)[C@@H](N)CCCN=C(N)N)C(=O)N[C@H](Cc1ccccc1)C(=O)N[C@@H](Cc1c[nH]cn1)C(=O)N[C@@H](CCCCN)C(=O)N[C@@H](CCCN=C(N)N)C(=O)N[C@H](C(N)=O)C(C)C | 4.88 | 4.85 (≈ 6.24 µg/mL)
CC[C@H](C)[C@H](NC(=O)[C@@H](Cc1ccccc1)NC(=O)[C@@H](Cc1c[nH]c2ccccc12)NC(=O)[C@@H](N)CCCN=C(N)N)C(=O)N[C@H](Cc1ccccc1)C(=O)N[C@@H](Cc1c[nH]cn1)C(=O)N[C@@H](CCCCN)C(=O)N[C@@H](CCCCN)C(=O)N[C@@H](CC(C)C)C(N)=O | 2.18 | 2.4 (≈ 3.06 µg/mL)
CC[C@H](C)[C@H](NC(=O)[C@@H](Cc1ccccc1)NC(=O)[C@@H](Cc1c[nH]c2ccccc12)NC(=O)[C@@H](N)CCCN=C(N)N)C(=O)N[C@H](Cc1ccccc1)C(=O)N[C@@H](Cc1c[nH]cn1)C(=O)N[C@@H](CCCCN)C(=O)N[C@@H](CCCN=C(N)N)C(=O)N[C@@H](Cc1c[nH]cn1)C(N)=O | 4.11 | 2.35 (≈ 3.12 µg/mL)
CC[C@H](C)[C@H](NC(=O)[C@@H](Cc1ccccc1)NC(=O)[C@@H](Cc1c[nH]c2ccccc12)NC(=O)[C@@H](N)CCCN=C(N)N)C(=O)N[C@H](Cc1ccccc1)C(=O)N[C@@H](Cc1c[nH]cn1)C(=O)N[C@@H](CCCCN)C(=O)N[C@@H](CCCN=C(N)N)C(=O)N[C@@H](CCC(N)=O)C(N)=O | 3.92 | 4.74 (≈ 6.24 µg/mL)
CC[C@H](C)[C@H](NC(=O)[C@@H](Cc1ccccc1)NC(=O)[C@@H](Cc1c[nH]c2ccccc12)NC(=O)[C@@H](N)CCCN=C(N)N)C(=O)N[C@H](Cc1ccccc1)C(=O)N[C@@H](Cc1c[nH]cn1)C(=O)N[C@@H](CCCCN)C(=O)N[C@@H](CCCCN)C(=O)N[C@@H](CO)C(N)=O | 1.77 | 2.45 (≈ 3.06 µg/mL)
CC[C@H](C)[C@H](NC(=O)[C@@H](Cc1ccccc1)NC(=O)[C@@H](Cc1c[nH]c2ccccc12)NC(=O)[C@@H](N)CCCN=C(N)N)C(=O)N[C@H](Cc1ccccc1)C(=O)N[C@@H](Cc1c[nH]cn1)C(=O)N[C@@H](CCCCN)C(=O)N[C@@H](CCCCN)C(=O)NCC(N)=O [listing 1 of 2 here] |  | 2.51 (≈ 3.06 µg/mL)
CC[C@H](C)[C@H](NC(=O)[C@@H](Cc1ccccc1)NC(=O)[C@@H](Cc1c[nH]c2ccccc12)NC(=O)[C@@H](N)CCCN=C(N)N)C(=O)N[C@H](Cc1ccccc1)C(=O)N[C@@H](Cc1c[nH]cn1)C(=O)N[C@@H](CCCCN)C(=O)N[C@@H](CCCCN)C(=O)N[C@@H](Cc1ccccc1)C(N)=O [listing 2 of 2 here] | > 7 | 
CC[C@H](C)[C@H](NC(=O)[C@@H](Cc1ccccc1)NC(=O)[C@@H](Cc1c[nH]c2ccccc12)NC(=O)[C@@H](N)CCCN=C(N)N)C(=O)N[C@H](Cc1ccccc1)C(=O)N[C@@H](Cc1c[nH]cn1)C(=O)N[C@@H](CCCCN)C(=O)N[C@@H](CCCN=C(N)N)C(=O)N[C@@H](CCCCN)C(N)=O | 3.34 | 2.36 (≈ 3.11 µg/mL)
CC[C@H](C)[C@H](NC(=O)[C@@H](Cc1ccccc1)NC(=O)[C@@H](Cc1c[nH]c2ccccc12)NC(=O)[C@@H](N)CCCN=C(N)N)C(=O)N[C@H](Cc1ccccc1)C(=O)N[C@@H](Cc1c[nH]cn1)C(=O)N[C@@H](CCCCN)C(=O)N[C@@H](CCCCN)C(=O)N[C@@H](CCCCN)C(N)=O | 1.83 | 2.37 (≈ 3.05 µg/mL)
NCCCC[C@H](NC(=O)[C@@H](Cc1ccccc1)NC(=O)[C@H](Cc1ccccc1)NC(=O)[C@@H](Cc1ccccc1)NC(=O)[C@@H](Cc1c[nH]c2ccccc12)NC(=O)[C@@H](N)Cc1c[nH]cn1)C(N)=O (H-H[dW][dF]F[dF]K-NH2) |  | 6.81 (≈ 6.2 µg/mL)
CC[C@H](C)[C@H](NC(=O)[C@@H](Cc1ccccc1)NC(=O)[C@@H](Cc1c[nH]c2ccccc12)NC(=O)[C@@H](N)CCCN=C(N)N)C(=O)N[C@H](Cc1ccccc1)C(=O)N[C@@H](Cc1c[nH]cn1)C(=O)N[C@@H](CCCCN)C(=O)N[C@@H](CCCCN)C(=O)N[C@@H](CC(=O)O)C(N)=O [listing 1 of 2 here] |  | 4.8 (≈ 6.12 µg/mL)
CC[C@H](C)[C@H](NC(=O)[C@@H](Cc1ccccc1)NC(=O)[C@@H](Cc1c[nH]c2ccccc12)NC(=O)[C@@H](N)CCCN=C(N)N)C(=O)N[C@H](Cc1ccccc1)C(=O)N[C@@H](Cc1c[nH]cn1)C(=O)N[C@@H](CCCCN)C(=O)N[C@@H](CCCCN)C(=O)N[C@@H](CCC(=O)O)C(N)=O [listing 1 of 2 here] | 3.57 | 
CC[C@H](C)[C@H](NC(=O)[C@@H](Cc1ccccc1)NC(=O)[C@@H](Cc1c[nH]c2ccccc12)NC(=O)[C@@H](N)CCCN=C(N)N)C(=O)N[C@H](Cc1ccccc1)C(=O)N[C@@H](Cc1c[nH]cn1)C(=O)N[C@@H](CCCCN)C(=O)N[C@@H](CCCCN)C(=O)N[C@@H](C)C(N)=O [listing 1 of 2 here] |  | 2.48 (≈ 3.05 µg/mL)
CC[C@H](C)[C@H](NC(=O)[C@@H](Cc1ccccc1)NC(=O)[C@@H](Cc1c[nH]c2ccccc12)NC(=O)[C@@H](N)CCCN=C(N)N)C(=O)N[C@H](Cc1ccccc1)C(=O)N[C@@H](Cc1c[nH]cn1)C(=O)N[C@@H](CCCCN)C(=O)N[C@@H](CCCCN)C(=O)NCC(N)=O [listing 2 of 2 here] | 2.77 | 
CC[C@H](C)[C@H](NC(=O)[C@@H](Cc1ccccc1)NC(=O)[C@@H](Cc1c[nH]c2ccccc12)NC(=O)[C@@H](N)CCCN=C(N)N)C(=O)N[C@H](Cc1ccccc1)C(=O)N[C@@H](Cc1c[nH]cn1)C(=O)N[C@@H](CCCCN)C(=O)N[C@@H](CCCCN)C(=O)N[C@@H](CCC(=O)O)C(N)=O [listing 2 of 2 here] |  | 2.37 (≈ 3.06 µg/mL)
CC[C@H](C)[C@H](NC(=O)[C@@H](Cc1ccccc1)NC(=O)[C@@H](Cc1c[nH]c2ccccc12)NC(=O)[C@@H](N)CCCN=C(N)N)C(=O)N[C@H](Cc1ccccc1)C(=O)N[C@@H](Cc1c[nH]cn1)C(N)=O (H-R[dW][dF]I[dF]H-NH2) |  | 6.86 (≈ 6.2 µg/mL)
CC[C@H](C)[C@H](NC(=O)[C@@H](Cc1ccccc1)NC(=O)[C@@H](Cc1c[nH]c2ccccc12)NC(=O)[C@@H](N)CCCN=C(N)N)C(=O)N[C@H](Cc1ccccc1)C(=O)N[C@@H](Cc1c[nH]cn1)C(=O)N[C@@H](CCCCN)C(=O)N[C@@H](CCCCN)C(=O)N[C@@H](C)C(N)=O [listing 2 of 2 here] | 3.17 | 
CC[C@H](C)[C@H](NC(=O)[C@@H](Cc1ccccc1)NC(=O)[C@@H](Cc1c[nH]c2ccccc12)NC(=O)[C@@H](N)CCCN=C(N)N)C(=O)N[C@H](Cc1ccccc1)C(=O)N[C@@H](Cc1c[nH]cn1)C(=O)N[C@@H](CCCCN)C(=O)N[C@@H](CCCCN)C(=O)N[C@@H](Cc1c[nH]cn1)C(N)=O [listing 2 of 2 here] | 1.9 | 
CC[C@H](C)[C@H](NC(=O)[C@@H](Cc1ccccc1)NC(=O)[C@@H](Cc1c[nH]c2ccccc12)NC(=O)[C@@H](N)CCCN=C(N)N)C(=O)N[C@H](Cc1ccccc1)C(=O)N[C@@H](Cc1c[nH]cn1)C(=O)N[C@@H](CCCCN)C(=O)N[C@@H](CCCCN)C(=O)N[C@@H](CC(=O)O)C(N)=O [listing 2 of 2 here] | 3.52 | 
